Laboratory results from publication PMC6508677, “Identification of druggable small molecule antagonists of the Plasmodium falciparum hexose transporter PfHT and assessment of ligand access to the glucose permeation pathway via FLAG-mediated protein engineering” (PLoS ONE, 2019).
“And” between values parts separate entries of the source, which are not always exact repeats. Identical values can stand only once. Like-named read-outs stand apart in the source and are kept apart here.

Legend:
hGLUT2 = molecular target: T1, hGLUT2 (Homo sapiens, UniProt P11168); assay: 2-DG uptake by HEK293 cells overexpressing hGLUT2; type: cell-based; conditions: for remaining activity at 0.001 µM: 0.001 µM compound; for remaining activity at 1.25 µM: 1.25 µM compound; for remaining activity at 5 µM / inhibition at 5 µM: 5 μM compound; for remaining activity at 80 µM: 80 µM compound; for remaining activity at 160 µM: 160 µM compound; for IC50: IC50 for inhibition of 2-DG uptake
T1 construct: expressed in transfected cells; host or cells: HEK293 (HEK293-FLIP, native hGLUT1 knocked down by shRNA)
T1 sequence (P11168 1-524): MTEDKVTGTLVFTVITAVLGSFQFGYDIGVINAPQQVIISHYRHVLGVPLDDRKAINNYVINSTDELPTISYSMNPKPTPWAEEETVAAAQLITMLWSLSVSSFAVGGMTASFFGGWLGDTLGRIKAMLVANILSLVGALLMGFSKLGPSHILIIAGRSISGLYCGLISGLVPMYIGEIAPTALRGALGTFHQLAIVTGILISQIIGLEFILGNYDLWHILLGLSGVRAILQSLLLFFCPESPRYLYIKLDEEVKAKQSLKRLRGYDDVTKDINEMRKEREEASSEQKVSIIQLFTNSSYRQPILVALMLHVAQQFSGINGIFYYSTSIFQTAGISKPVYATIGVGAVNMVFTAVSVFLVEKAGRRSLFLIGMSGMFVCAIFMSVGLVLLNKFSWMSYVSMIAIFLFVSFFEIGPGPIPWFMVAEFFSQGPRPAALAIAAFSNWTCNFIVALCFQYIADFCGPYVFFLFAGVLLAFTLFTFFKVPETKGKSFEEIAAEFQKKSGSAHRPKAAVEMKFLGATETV
Description: (§1) Generation of HEK293 cells overexpressing PfHT and human GLUTs 1–4 were described elsewhere. Briefly, HEK293 cells were transfected with pcDNA3.1 FLII12Pglu-7006 (Addgene), containing the fluorescence resonance energy transfer (FRET) glucose sensor (HEK293-FLIP) and PfHT, human GLUT1 (hGLUT1), hGLUT2, hGLUT3, hGLUT4, hGLUT5 or hGLUT8 using Optifect (Life Technologies) according to manufacturer’s specifications. To increase retention of GLUT8 at the plasma membrane, the dileucine sorting signal E^7E^8XXXLL was modified to R^7R^8XXXLL as described in [17]. Stable transfectants were selected for G418 and hygromycin resistance to select for FRET sensor and hexose transporter, respectively. HEK293-FLIP cells were also used to generate cells stably transfected with FLAG-tagged PfHT (FTPfHT). FLAG tag ([…]) followed by a triple glycine linker and a tobacco etch virus (TEV) protease site (ENLYFQS) followed by a triple glycine linker was added to the N-terminus of PfHT via PCR [18] using Phusion Hot Start II High-Fidelity DNA Polymerase (Fisher Scientific). Single clones were selected by comparing their abilities to transport glucose as assayed via FRET and radiolabeled hexose uptake. In all cell lines, except for HEK293 cells overexpressing hGLUT1 and hGLUT5, native hGLUT1 was knocked down using shRNA as described elsewhere. Transcript levels of the individual GLUTs expressed in each cell line are as described in [13, 15] and in S1 Fig.
(§2) Glucose uptake by P. falciparum was performed essentially as described. P. falciparum strain 3D7 was cultured in 100 mm tissue culture dishes (Techno Plastic Products) in a 2% suspension of human erythrocytes and RPMI 1640 medium until reaching > 7.5% parasitemia. Cells were pelleted via centrifugation and resuspended in RPMI 1640 medium. To determine the uptake of radiolabeled glucose into the parasite, parasites were isolated from infected erythrocytes by permeablization with saponin (0.05 w/v), followed by centrifugation, aspiration of supernatant and washing of the pellet 3X with saline solution (135 mM NaCl, 2 mM KCl, 25 mM HEPES, 0.2 mM glucose and 1 mM MgCl2; pH 7.1) to remove cellular debris. WU-1 or DMSO vehicle were added to 100 μl parasites (resuspended in saline) 5 min prior to the addition of 100 μl [^14C]2-DOG (0.2- μCi/ml final concentration). 2-DG uptake was stopped after 2 min by layering the entire reaction over 300 μl of an oil mixture (5:4 mix of dibutyl phthalate / dinonyl phthalate) in Eppendorf tubes and centrifuged at 15,850 × g for 2 mins. The ratio of the estimated intracellular concentration of radiolabel relative to the extracellular concentration were calculated as described. Uptake of radiolabeled hexose into HEK293 cells was measured in glucose-free HBSS as described previously. Briefly, cells were plated at 400,000 cells/well overnight at 37°C in 24-well plates pre-treated with PEI. After 30-min incubation at 37°C in glucose-free HBSS in the presence of vehicle or increasing concentrations of compound, 2-DG uptake was measured in glucose-free HBSS for 4 min at 37°C. Cultures were washed in ice-cold 1X PBS and lysed in 0.1% Triton X-100 in 1X PBS. Radiolabeled hexose uptake was determined by liquid scintillation counting (Ultima Gold, Thermo Fisher) and normalized to total protein per well. Uptake data are plotted as percent uptake relative to vehicle-treated cells. Kinetic analyses were performed using the indicated concentrations of substrate and WU-1, with quenching of uptake after 1 min incubation. Incubation times had been previously determined as being in the linear range of time-dependent radiolabeled hexose uptake (2 min for 2-DG uptake into freed parasites; 2 and 4 min for D-Frc and 2-DG uptake HEK cell lines, respectively). Data were fit by least squares nonlinear regression analysis using GraphPad Prism 6.0 software.

hGLUT4 = molecular target: T2, hGLUT4 (Homo sapiens, UniProt P14672); assay: 2-DG uptake by HEK293 cells overexpressing hGLUT4; type: cell-based; conditions: for remaining activity at 0.001 µM: 0.001 µM compound; for remaining activity at 0.001 µM / remaining activity at 1.25 µM / remaining activity at 2.5 µM / remaining activity at 5 µM / remaining activity at 10 µM / remaining activity at 20 µM / remaining activity at 40 µM / remaining activity at 80 µM / remaining activity at 160 µM / remaining activity at 225 µM: read-out: 2-DG uptake (percent uptake relative to vehicle), AVE per experiment; for remaining activity at 1.25 µM: 1.25 µM compound; for remaining activity at 20 µM: 20 µM compound; for remaining activity at 40 µM: 40 µM compound; for remaining activity at 80 µM: 80 µM compound; for remaining activity at 160 µM: 160 µM compound; for remaining activity at 225 µM: 225 µM compound; for IC50: IC50 for inhibition of 2-DG uptake
T2 construct: expressed in transfected cells; host or cells: HEK293 (HEK293-FLIP, native hGLUT1 knocked down by shRNA)
T2 sequence (P14672 1-509): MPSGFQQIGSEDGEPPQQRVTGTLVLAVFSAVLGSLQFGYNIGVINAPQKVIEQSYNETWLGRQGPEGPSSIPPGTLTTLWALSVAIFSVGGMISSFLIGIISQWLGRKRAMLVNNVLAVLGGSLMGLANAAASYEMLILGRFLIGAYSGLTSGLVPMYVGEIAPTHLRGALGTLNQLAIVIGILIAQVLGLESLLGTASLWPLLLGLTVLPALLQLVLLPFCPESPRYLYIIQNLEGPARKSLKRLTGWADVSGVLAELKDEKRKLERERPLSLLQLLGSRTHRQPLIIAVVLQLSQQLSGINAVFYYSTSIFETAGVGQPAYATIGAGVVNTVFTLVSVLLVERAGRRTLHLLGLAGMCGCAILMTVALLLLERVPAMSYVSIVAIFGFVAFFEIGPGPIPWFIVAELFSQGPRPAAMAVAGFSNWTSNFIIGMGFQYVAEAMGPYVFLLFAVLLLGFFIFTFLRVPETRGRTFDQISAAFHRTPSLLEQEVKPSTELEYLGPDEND
Description: as §1, §2

[1] = HEK293, 4 min, GLUT2, read-out: 2-DG uptake (percent uptake relative to vehicle), AVE per experiment
[2] = HEK293, 4 min, GLUT2, 2.5 µM compound, read-out: 2-DG uptake (percent uptake relative to vehicle), AVE per experiment
[3] = HEK293, 4 min, GLUT2, read-out: % Inhibition of 2-DG uptake vs vehicle
[4] = GLUT2 cell line, mean/reported value
[5] = individual experiments, GLUT2, Expt 1-3
[6] = HEK293, 4 min, GLUT4, 2.5 µM compound
[7] = HEK293, 4 min, GLUT4, 5 µM compound
[8] = HEK293, 4 min, GLUT4, 10 µM compound
[9] = GLUT4 cell line, mean/reported value

| Compound | remaining activity at 0.001 µM (hGLUT2; [1]) | remaining activity at 1.25 µM (hGLUT2; [1]) | remaining activity at 2.5 µM (hGLUT2; [2]) | remaining activity at 5 µM (hGLUT2; [1]) | inhibition at 5 µM (hGLUT2; [3]) | remaining activity at 80 µM (hGLUT2; [1]) | remaining activity at 160 µM (hGLUT2; [1]) | IC50 (hGLUT2; [4]) | IC50 (hGLUT2; [5]) | remaining activity at 0.001 µM (hGLUT4; HEK293, 4 min, GLUT4) | remaining activity at 1.25 µM (hGLUT4; HEK293, 4 min, GLUT4) | remaining activity at 2.5 µM (hGLUT4; [6]) | remaining activity at 5 µM (hGLUT4; [7]) | remaining activity at 10 µM (hGLUT4; [8]) | remaining activity at 20 µM (hGLUT4; HEK293, 4 min, GLUT4) | remaining activity at 40 µM (hGLUT4; HEK293, 4 min, GLUT4) | remaining activity at 80 µM (hGLUT4; HEK293, 4 min, GLUT4) | remaining activity at 160 µM (hGLUT4; HEK293, 4 min, GLUT4) | remaining activity at 225 µM (hGLUT4; HEK293, 4 min, GLUT4) | IC50 (hGLUT4; [9]) | other results |
| --- | --- | --- | --- | --- | --- | --- | --- | --- | --- | --- | --- | --- | --- | --- | --- | --- | --- | --- | --- | --- | --- |
| Cc1ccc(S(=O)(=O)CCNC(=O)c2c(-c3c(Cl)cccc3Cl)noc2C)cc1 [WU-1, 3-(2,6-dichlorophenyl)-5-methyl-N-[2-(4-methylbenzenesulfonyl)ethyl]-1,2-oxazole-4-carboxamide] | 100% | 108% | 110% | 83% | ~10% | 73.8% | 54.5% | > 50 µM | 52.4 µM | 100% | 99.2% | 96.1% | 89.1% | 94% | 88.4% | 86.8% | 74.7% | 64.7% | 61.9% | > 100 µM | IC50 for inhibition of 2-DG uptake, individual experiments (hGLUT2; GLUT2, Expt 1-3): ambiguous; IC50 for inhibition of 2-DG uptake, individual experiments (hGLUT4; GLUT4, Expt 1-3): ambiguous; remaining activity at 5 µM (hGLUT4; HEK293, 4 min): 102%; remaining activity at 10 µM (hGLUT4; HEK293, 4 min): 83.2%; inhibition at 5 µM (hGLUT4; HEK293, 4 min, read-out: % Inhibition of 2-DG uptake vs vehicle): -1.91% |
| COc1c(Br)cc([N+](=O)[O-])c(OC)c1C(=O)NC(=O)Nc1c(C)cccc1Cl [WU-2, 3-(3-bromo-2,6-dimethoxy-5-nitrobenzoyl)-1-(2-chloro-6-methylphenyl)urea] | 100% | 102% | 83.6% | 74.5% | 10 to 12% | 35.2% | 42.1% | 15.9 ± 2.5 µM | 14.1 µM and 20.8 µM and 12.9 µM | 100% | 95.3% | 91.7% | 86.8% | 88.3% | 74.1% | 66.7% | 61% | 55.7% | 63.7% | 18.5 ± 3.5 µM | Maximum Inhibition (%) (hGLUT2; 2-DG uptake, GLUT2 cell line): 62.0%; remaining activity at 10 µM (hGLUT2; HEK293, 4 min, GLUT2, 10 µM compound, read-out: 2-DG uptake (percent uptake relative to vehicle), AVE per experiment): 62.8%; remaining activity at 20 µM (hGLUT2; HEK293, 4 min, GLUT2, 20 µM compound, read-out: 2-DG uptake (percent uptake relative to vehicle), AVE per experiment): 64%; remaining activity at 40 µM (hGLUT2; HEK293, 4 min, GLUT2, 40 µM compound, read-out: 2-DG uptake (percent uptake relative to vehicle), AVE per experiment): 39.5%; remaining activity at 225 µM (hGLUT2; HEK293, 4 min, GLUT2, 225 µM compound, read-out: 2-DG uptake (percent uptake relative to vehicle), AVE per experiment): 30.9%; Maximum Inhibition (%) (hGLUT4; 2-DG uptake, GLUT4 cell line): 40.0%; inhibition at 5 µM (hGLUT4; HEK293, 4 min, GLUT4, 5 µM compound, read-out: % Inhibition of 2-DG uptake vs vehicle): 10 to 12%; IC50 (hGLUT4; individual experiments, GLUT4, Expt 1-3): 14.2 µM and 25.4 µM and 15.9 µM |
| COc1cc(/C=C2\COC/C(=C\c3cc(OC)c(OC)c(OC)c3)C2=O)cc(OC)c1OC [WU-5, (3E,5E)-3,5-bis[(3,4,5-trimethoxyphenyl)methylidene]oxan-4-one] | – | – | – | – | – | – | – | – | – | – | – | – | – | – | – | – | – | – | – | – | inhibition at 2.5 µM (hGLUT2; HEK293, 4 min, GLUT2, 2.5 µM compound, read-out: % Inhibition of 2-DG uptake vs vehicle): ~70%; inhibition at 2.5 µM (hGLUT4; HEK293, 4 min, GLUT4, 2.5 µM compound, read-out: % Inhibition of 2-DG uptake vs vehicle): ~45% |
